What was measured:
Experiment in all cases: relative viability (nuclei count vs DMSO), 5 days (fraction); higher = more cells survive
EHT 1864 + Tozasertib = compound: C1COCCN1CC2=CC(=O)C(=CO2)OCCCCCSC3=C4C=CC(=CC4=NC=C3)C(F)(F)F [EHT 1864] + Cc1cc(Nc2cc(N3CCN(C)CC3)nc(Sc3ccc(NC(=O)C4CC4)cc3)n2)n[nH]1 [Tozasertib] (partner 0.1 µM)
Outline: (§1)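 After 5 days of treatment, lung cancer cells in 1536-well plates were fixed and stained in a single step (final 0.05% Triton X-100, 1% formaldehyde, 1 ug/ml Hoechst) and their nuclei counted on 4× images. Treatment had been applied by pin tool the day after seeding as one drug alone or as a fixed anchor-drug dose with five library-drug doses (not always all listed) in √10 steps. Relative viability is the nuclei count of treated wells divided by that of vehicle wells, and values are medians of duplicate plates.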

EHT 1864 + Foretinib = compound: C1COCCN1CC2=CC(=O)C(=CO2)OCCCCCSC3=C4C=CC(=CC4=NC=C3)C(F)(F)F [EHT 1864] + COc1cc2c(Oc3ccc(NC(=O)C4(C(=O)Nc5ccc(F)cc5)CC4)cc3F)ccnc2cc1OCCCN1CCOCC1 [Foretinib] (partner 0.25 µM)
Outline: as §1

EHT 1864 + AZD7762 = compound: C1COCCN1CC2=CC(=O)C(=CO2)OCCCCCSC3=C4C=CC(=CC4=NC=C3)C(F)(F)F [EHT 1864] + NC(=O)Nc1cc(-c2cccc(F)c2)sc1C(=O)N[C@H]1CCCNC1 [AZD7762] (partner 0.2 µM)
Outline: as §1

EHT 1864 + Luminespib = compound: C1COCCN1CC2=CC(=O)C(=CO2)OCCCCCSC3=C4C=CC(=CC4=NC=C3)C(F)(F)F [EHT 1864] + CCNC(=O)c1noc(-c2cc(C(C)C)c(O)cc2O)c1-c1ccc(CN2CCOCC2)cc1 [Luminespib] (partner 0.01 µM)
Outline: as §1

Cell Line	relative viability (EHT 1864 + Tozasertib; first compound 0.04 µM)	relative viability (EHT 1864 + Tozasertib; first compound 0.4 µM)	relative viability (EHT 1864 + Tozasertib; first compound 1.265 µM)	relative viability (EHT 1864 + Tozasertib; first compound 4 µM)	relative viability (EHT 1864 + Foretinib; first compound 0.04 µM)	relative viability (EHT 1864 + Foretinib; first compound 0.4 µM)	relative viability (EHT 1864 + Foretinib; first compound 1.265 µM)	relative viability (EHT 1864 + Foretinib; first compound 4 µM)	relative viability (EHT 1864 + AZD7762; first compound 0.04 µM)	relative viability (EHT 1864 + AZD7762; first compound 0.4 µM)	relative viability (EHT 1864 + AZD7762; first compound 1.265 µM)	relative viability (EHT 1864 + AZD7762; first compound 4 µM)	relative viability (EHT 1864 + Luminespib; first compound 0.04 µM)	relative viability (EHT 1864 + Luminespib; first compound 0.4 µM)	relative viability (EHT 1864 + Luminespib; first compound 1.265 µM)	relative viability (EHT 1864 + Luminespib; first compound 4 µM)	relative viability (EHT 1864 + Tozasertib; first compound 0.1265 µM)	relative viability (EHT 1864 + Foretinib; first compound 0.1265 µM)	relative viability (EHT 1864 + AZD7762; first compound 0.1265 µM)	relative viability (EHT 1864 + Luminespib; first compound 0.1265 µM)
LK-2	0.162	0.169	0.198	0.164	1.14	0.919	0.982	1.35	0.462	0.296	0.443	0.286	0.167	0.224	0.178	0.177				
LOU-NH91	0.614	0.67	0.609	0.69	0.956	0.922	0.96	0.814	0.746	0.759	0.735	0.755	0.345	0.342	0.294	0.32	0.551	0.874	0.67	0.345
LU99A	0.295	0.253	0.244	0.216	0.818	0.835	0.805	0.749	0.445	0.359	0.308	0.403	0.186	0.229	0.215	0.233	0.254	0.796	0.203	0.242
LXF-289	0.201	0.196	0.209	0.203	0.976	0.947	0.925	0.851	1.14	1.03	1.07	1.1	0.739	0.689	0.657	0.647	0.144	0.961	1.01	0.544
NCI-H23	0.397	0.373	0.291	0.367	0.92	0.889	0.956	0.923	0.203	0.223	0.198	0.221	0.194	0.242	0.193	0.204	0.372	0.959	0.231	
NCI-H322M	0.477	0.448	0.461	0.51	0.898	0.995	0.895	1.06	0.601	0.589	0.577	0.667	0.877	0.955	0.529	1.06	0.457	0.948	0.501	0.859
NCI-H358	0.113	0.104	0.102	0.0985	0.689	0.848	0.637	0.621	0.558	0.536	0.556	0.456	0.302	0.313	0.469	0.414	0.128	0.613	0.587	0.398
NCI-H441	0.55	0.596	0.507	0.481	0.953	1	0.942	0.984	1.01	1.04	1.11	1.5	0.478	0.322	0.393	0.385	0.544	1.03		0.346

From the supplement of paper PMC10307832
